ChEMBL document CHEMBL5724914, “Linking interpersonal differences in gut microbiota composition and drug biotransformation activity” (2024)

Key:
[1] = (§1) The drug is tested on Z-003 corresponding to pig gut metagenome with ENA study accession number: PRJEB37062 and ENA sample accession number: ERS12561803 for biotransformation under anaerobic condition. The drug concentrations were measured over 9 timepoints collected between 0 and 24 hours of incubation by liquid-chromatography-coupled mass spectrometry (LC–MS); details: 2 µM
[2] = as §1, with “WLS-086” for “Z-003”, “human” for “pig”, “ERS12561752” for “ERS12561803”; details: 2 µM
[3] = as §1, with “WLS-077” for “Z-003”, “human” for “pig”, “ERS12561750” for “ERS12561803”; details: 2 µM
[4] = as §1, with “WLS-010” for “Z-003”, “human” for “pig”, “ERS12561743” for “ERS12561803”; details: 2 µM
[5] = human gut metagenome, 24 h, 2 µM
[6] = human gut metagenome, 24 h, 2 µM; remark: listed apart in the source
[7] = human gut metagenome, 24 h, 2 µM; remark: listed apart in the source
[8] = human gut metagenome, 24 h, 2 µM; remark: listed apart in the source
[9] = human gut metagenome, 24 h, 2 µM; remark: listed apart in the source
[10] = human gut metagenome, 24 h, 2 µM; remark: listed apart in the source
[11] = human gut metagenome, 24 h, 2 µM; remark: listed apart in the source
[12] = human gut metagenome, 24 h, 2 µM; remark: listed apart in the source
[13] = human gut metagenome, 24 h, 2 µM; remark: listed apart in the source
[14] = human gut metagenome, 24 h, 2 µM; remark: listed apart in the source
[15] = human gut metagenome, 24 h, 2 µM; remark: listed apart in the source
[16] = as §1, with “Z-011” for “Z-003”, “mouse” for “pig”, “ERS12561811” for “ERS12561803”; details: 2 µM
[17] = as §1, with “Z-005” for “Z-003”, “to” for “to pig gut”, “ERS12561805” for “ERS12561803”; details: 2 µM
[18] = as §1, with “Z-006” for “Z-003”, “mouse” for “pig”, “ERS12561806” for “ERS12561803”; details: 2 µM
[19] = as §1, with “Z-007” for “Z-003”, “rat” for “pig”, “ERS12561807” for “ERS12561803”; details: 2 µM
Also: call rule not given here.

Compound | Bacterial Biotransformation [1] | Bacterial Biotransformation [2] | Bacterial Biotransformation [3] | Bacterial Biotransformation [4] | Bacterial Biotransformation [5] | Bacterial Biotransformation [6] | Bacterial Biotransformation [7] | Bacterial Biotransformation [8] | Bacterial Biotransformation [9] | Bacterial Biotransformation [10] | Bacterial Biotransformation [11] | Bacterial Biotransformation [12] | Bacterial Biotransformation [13] | Bacterial Biotransformation [14] | Bacterial Biotransformation [15] | Bacterial Biotransformation [16] | Bacterial Biotransformation [17] | Bacterial Biotransformation [18] | Bacterial Biotransformation [19]
CN1CCc2cccc3c2[C@H]1Cc1ccc(O)c(O)c1-3 [APOMORPHINE] | Compound metabolized | Compound NOT metabolized | Compound NOT metabolized | Compound NOT metabolized | Compound NOT metabolized | Compound NOT metabolized | Compound NOT metabolized | Compound NOT metabolized | Compound NOT metabolized | Compound NOT metabolized | Compound NOT metabolized | Compound NOT metabolized | Compound NOT metabolized | Compound NOT metabolized |  |  |  |  | 
OC(CCN1CCCCC1)(c1ccccc1)C1CC2C=CC1C2 (stereo not given) [BIPERIDEN] |  | Compound metabolized | Compound NOT metabolized | Compound NOT metabolized | Compound NOT metabolized | Compound NOT metabolized | Compound NOT metabolized | Compound metabolized | Compound NOT metabolized | Compound metabolized | Compound NOT metabolized | Compound NOT metabolized | Compound NOT metabolized | Compound metabolized | Compound NOT metabolized |  |  |  | 
CC(=O)O[C@]1(C(C)=O)CC[C@H]2[C@@H]3C=C(Cl)C4=CC(=O)[C@@H]5C[C@@H]5[C@]4(C)[C@H]3CC[C@@]21C [CYPROTERONE ACETATE] | Compound metabolized | Compound metabolized | Compound metabolized | Compound metabolized | Compound metabolized | Compound metabolized | Compound metabolized | Compound NOT metabolized | Compound NOT metabolized | Compound metabolized | Compound metabolized | Compound metabolized | Compound metabolized | Compound NOT metabolized | Compound metabolized | Compound metabolized | Compound metabolized |  | 
C#C[C@]1(O)CC[C@H]2[C@@H]3CCC4=Cc5oncc5C[C@]4(C)[C@H]3CC[C@@]21C [DANAZOL] | Compound metabolized | Compound metabolized | Compound metabolized | Compound metabolized |  |  | Compound metabolized |  |  | Compound NOT metabolized | Compound metabolized | Compound metabolized |  | Compound metabolized | Compound metabolized |  |  | Compound metabolized | 
CN1C[C@H](C(=O)N[C@]2(C)O[C@@]3(O)[C@@H]4CCCN4C(=O)[C@H](Cc4ccccc4)N3C2=O)C=C2c3cccc4[nH]cc(c34)C[C@H]21.CN1C[C@H](C(=O)N[C@]2(C)O[C@@]3(O)[C@@H]4CCCN4C(=O)[C@H](Cc4ccccc4)N3C2=O)C=C2c3cccc4[nH]cc(c34)C[C@H]21.O=C(O)C(O)C(O)C(=O)O [ERGOTAMINE TARTRATE] |  | Compound metabolized | Compound metabolized | Compound metabolized | Compound NOT metabolized | Compound metabolized | Compound metabolized | Compound metabolized | Compound metabolized | Compound metabolized | Compound metabolized |  | Compound metabolized | Compound NOT metabolized | Compound NOT metabolized |  | Compound NOT metabolized | Compound NOT metabolized | Compound NOT metabolized
COC(=O)C1=C(C)NC(C)=C(C(=O)OC(C)C)C1c1cccc2nonc12 (stereo not given) [ISRADIPINE] | Compound metabolized | Compound metabolized | Compound NOT metabolized | Compound metabolized | Compound metabolized | Compound metabolized | Compound NOT metabolized | Compound NOT metabolized | Compound NOT metabolized | Compound metabolized | Compound metabolized | Compound metabolized | Compound NOT metabolized | Compound NOT metabolized | Compound metabolized |  |  |  | 
CNC(=C[N+](=O)[O-])NCCSCc1csc(CN(C)C)n1 [NIZATIDINE] | Compound NOT metabolized | Compound metabolized | Compound NOT metabolized | Compound NOT metabolized | Compound NOT metabolized | Compound NOT metabolized | Compound metabolized | Compound metabolized | Compound NOT metabolized | Compound metabolized | Compound NOT metabolized | Compound NOT metabolized | Compound metabolized | Compound metabolized | Compound metabolized | Compound metabolized | Compound NOT metabolized | Compound NOT metabolized | Compound NOT metabolized
CN(C(=O)CN(CCO)CC(=O)N(C)C(C)(C)Cc1ccccc1)C(C)(C)Cc1ccccc1 [OXETHAZAINE] |  | Compound metabolized | Compound metabolized | Compound metabolized | Compound metabolized | Compound metabolized | Compound NOT metabolized | Compound metabolized | Compound metabolized | Compound metabolized | Compound metabolized | Compound metabolized | Compound metabolized | Compound NOT metabolized | Compound metabolized |  |  |  | 
Cc1nc2n(c(=O)c1CCN1CCC(c3noc4cc(F)ccc34)CC1)CCCC2O (stereo not given) [PALIPERIDONE] | Compound NOT metabolized | Compound metabolized | Compound metabolized | Compound metabolized | Compound metabolized | Compound metabolized | Compound metabolized | Compound metabolized | Compound metabolized | Compound metabolized | Compound metabolized | Compound metabolized | Compound metabolized | Compound NOT metabolized | Compound metabolized | Compound NOT metabolized | Compound NOT metabolized |  | 
CN1CCN(CC/C=C2/c3ccccc3Sc3ccc(S(=O)(=O)N(C)C)cc32)CC1 [THIOTHIXENE] |  | Compound metabolized | Compound NOT metabolized | Compound metabolized | Compound metabolized | Compound metabolized | Compound metabolized | Compound metabolized | Compound metabolized | Compound metabolized | Compound metabolized | Compound metabolized | Compound metabolized | Compound metabolized | Compound metabolized |  |  |  | 
CS(=O)(=O)O.O.O.O.O=C1Cc2cc(CCN3CCN(c4nsc5ccccc45)CC3)c(Cl)cc2N1 [ZIPRASIDONE MESYLATE] |  | Compound metabolized | Compound NOT metabolized | Compound NOT metabolized | Compound NOT metabolized | Compound NOT metabolized | Compound NOT metabolized | Compound NOT metabolized | Compound NOT metabolized | Compound NOT metabolized | Compound metabolized | Compound metabolized | Compound metabolized | Compound NOT metabolized | Compound NOT metabolized |  |  |  | 
